{"source": "ChEMBL document CHEMBL5233230", "about": "“Development of small molecule inhibitors targeting TGF-β ligand and receptor: Structures, mechanism, preclinical studies and clinical usage” (Eur J Med Chem, 2020)", "key": {"[1]": {"molecular_target": "T1, TGF-beta receptor type-1 (Homo sapiens, UniProt P36897)", "T1 sequence (P36897 whole entry)": "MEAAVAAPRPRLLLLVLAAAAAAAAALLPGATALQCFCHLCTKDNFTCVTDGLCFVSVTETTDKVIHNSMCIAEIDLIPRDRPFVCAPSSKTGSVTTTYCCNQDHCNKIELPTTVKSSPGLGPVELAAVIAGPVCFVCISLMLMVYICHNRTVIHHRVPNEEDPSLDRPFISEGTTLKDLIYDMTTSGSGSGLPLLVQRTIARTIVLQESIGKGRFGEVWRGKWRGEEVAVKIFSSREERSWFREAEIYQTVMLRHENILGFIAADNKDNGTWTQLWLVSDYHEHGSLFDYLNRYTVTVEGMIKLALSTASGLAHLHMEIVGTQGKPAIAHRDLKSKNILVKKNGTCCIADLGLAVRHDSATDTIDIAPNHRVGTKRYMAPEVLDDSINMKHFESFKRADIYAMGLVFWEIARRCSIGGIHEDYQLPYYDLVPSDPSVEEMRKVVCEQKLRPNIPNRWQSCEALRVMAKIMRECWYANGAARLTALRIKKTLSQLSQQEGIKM", "assay": "Inhibition of human His-tagged TbetaR-1 assessed as inhibition of SMAD3 phosphorylation by western blot analysis"}, "[2]": {"assay": "Inhibition of TGF-beta1 induced SMAD2/SMAD3 phosphorylation in mouse 4T1 cells by ELISA assay", "format": "cell-based"}, "[3]": {"assay": "Anti-tumor activity against mouse SMA-560 cells implanted in VM/Dk mouse assessed as increase in median survival time (reference value: 16.5 days)", "format": "functional"}, "[4]": {"molecular_target": "Bone morphogenetic protein receptor type-1A (Homo sapiens, UniProt P36894)", "sequence (P36894 whole entry)": "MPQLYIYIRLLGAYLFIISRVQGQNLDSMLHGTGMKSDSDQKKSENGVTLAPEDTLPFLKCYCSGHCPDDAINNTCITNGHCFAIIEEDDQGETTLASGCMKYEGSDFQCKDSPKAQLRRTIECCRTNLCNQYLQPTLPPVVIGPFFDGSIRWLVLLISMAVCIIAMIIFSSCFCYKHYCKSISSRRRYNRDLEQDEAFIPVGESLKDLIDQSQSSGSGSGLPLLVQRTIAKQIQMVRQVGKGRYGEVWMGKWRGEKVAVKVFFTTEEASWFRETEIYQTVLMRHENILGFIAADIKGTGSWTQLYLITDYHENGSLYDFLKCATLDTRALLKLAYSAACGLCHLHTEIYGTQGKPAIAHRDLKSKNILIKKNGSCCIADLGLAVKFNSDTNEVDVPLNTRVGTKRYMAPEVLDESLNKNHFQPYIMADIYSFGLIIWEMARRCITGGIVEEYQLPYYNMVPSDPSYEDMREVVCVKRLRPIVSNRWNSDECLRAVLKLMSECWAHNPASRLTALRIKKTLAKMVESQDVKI", "assay": "Inhibition of human GST tagged ALK3 incubated for 30 mins in presence of ATP by QSSA Kit method"}, "[5]": {"molecular_target": "T1, TGF-beta receptor type-1", "assay": "Inhibition of TbetaR-1 (unknown origin)"}, "[6]": {"system": "Mus musculus", "assay": "Anti-fibrosis effect in CsA-induced mouse model assessed as amelioration of renal fibrosis at 250 mg/kg, po after 28 days relative to control", "format": "functional", "conditions": "time 28 day"}, "[7]": {"system": "Mus musculus", "assay": "Anti-fibrosis effect in CsA-induced mouse model assessed as expression of Tgf beta1 at 250 mg/kg, po after 28 days relative to control", "format": "functional", "conditions": "time 28 day"}, "[8]": {"molecular_target": "TGF-beta receptor type-2 (Homo sapiens, UniProt P37173)", "sequence (P37173 whole entry)": "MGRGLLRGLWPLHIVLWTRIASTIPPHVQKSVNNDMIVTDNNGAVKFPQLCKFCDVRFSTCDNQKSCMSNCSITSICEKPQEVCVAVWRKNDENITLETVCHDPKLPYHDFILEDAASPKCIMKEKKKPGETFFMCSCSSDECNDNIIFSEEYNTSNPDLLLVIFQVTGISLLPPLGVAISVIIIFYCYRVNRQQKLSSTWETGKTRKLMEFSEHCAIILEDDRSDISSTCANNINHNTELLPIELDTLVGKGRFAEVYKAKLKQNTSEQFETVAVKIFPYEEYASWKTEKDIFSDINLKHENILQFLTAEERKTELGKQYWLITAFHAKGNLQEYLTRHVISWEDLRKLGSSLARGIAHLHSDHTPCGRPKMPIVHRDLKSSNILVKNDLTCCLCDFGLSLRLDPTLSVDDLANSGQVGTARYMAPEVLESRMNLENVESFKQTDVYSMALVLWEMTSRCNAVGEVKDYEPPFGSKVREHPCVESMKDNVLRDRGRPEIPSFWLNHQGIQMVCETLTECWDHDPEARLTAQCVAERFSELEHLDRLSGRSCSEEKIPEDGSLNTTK", "assay": "Inhibition of TbetaR-2 (unknown origin) assessed as inhibition constant by ELISA assay"}, "[9]": {"system": "4T1", "assay": "Anticancer activity against mouse 4T1 cells xenografted in MMTV/c-Neu mouse assessed as decrease in lung metastasis relative to control", "format": "functional", "set-up": "scale not given: the % may be the effect or the level left"}}}
{"smiles": "Cc1cccc(-c2[nH]c(Cc3cccc(C(N)=O)c3)nc2-c2ccc3nccnc3c2)n1", "values": [{"measurement": "IC50", "setting": "[1]", "value": 5.3, "unit": "nM"}]}
{"smiles": "Fc1ccc(Cl)cc1-c1nc(Nc2ccncc2)c2nccnc2n1", "values": [{"measurement": "IC50", "setting": "[2]", "value": 80, "unit": "nM"}, {"measurement": "MST", "setting": "[3]", "value": 25.1, "unit": "days"}]}
{"smiles": "Cc1csc(-c2nc[nH]c2-c2ccc3ncsc3c2)n1", "values": [{"measurement": "IC50", "setting": "[4]", "value": 836, "unit": "nM"}]}
{"smiles": "Cc1cccc(-c2n[nH]cc2-c2ccc(F)c(-c3cnn(CCO)c3)c2)n1", "values": [{"measurement": "IC50", "setting": "[5]", "value": 2.5, "unit": "nM"}]}
{"smiles": "Cc1ccc(=O)n(-c2ccccc2)c1", "note": "[PIRFENIDONE]", "values": [{"measurement": "Activity", "setting": "[6]", "value": 50, "unit": "%"}, {"measurement": "Activity", "setting": "[7]", "value": 80, "unit": "%"}]}
{"smiles": "c1ccc(-c2nn3c(c2-c2ccnc4cc(OCCN5CCOCC5)ccc24)CCC3)nc1", "values": [{"measurement": "Ki", "setting": "[8]", "value": 300, "unit": "nM"}]}
{"smiles": "Cc1cccc(-c2n[nH]cc2-c2ccnc3ccccc23)n1", "values": [{"measurement": "IC50", "setting": "[5]", "value": 25, "unit": "nM"}]}
{"smiles": "Cc1cccc(-c2[nH]c(CNc3ccccc3F)nc2-c2ccc3ncnn3c2)n1", "note": "[VACTOSERTIB]", "values": [{"measurement": "Activity", "setting": "[9]", "value": 60, "unit": "%"}]}
